{"source": "patent US5681581A", "about": "“Controlled release pharmaceutical formulations of 3'-azido-3'-deoxythymidine and methods of use” (priority 1995, dated 1997)", "origin": "cited, not measured here", "key": {"reverse transcriptase": {"tested_on": "reverse transcriptase", "details": "result in words"}, "DNA polymerase": {"tested_on": "DNA polymerase", "details": "result in words"}, "bone marrow cells": {"tested_on": "bone marrow cells", "details": "than AZT"}, "[1]": {"details": "intravenous AZT 2.5 mg/kg, patients"}, "HIV [2]": {"tested_on": "HIV", "details": "result in words"}, "[3]": {"details": "result in words"}, "[4]": {"tested_on": "cells of HIV infected patients", "details": "HIV infected patients taking AZT"}, "[5]": {"details": "animals"}, "[6]": {"details": "capsules and liquid solutions, oral"}, "HIV [7]": {"tested_on": "HIV"}}, "note": "Entries after “also recorded” stand apart in the source; their conditions may differ."}
{"smiles": "Cc1cn([C@H]2C[C@H](N)[C@@H](COP(=O)(O)OP(=O)(O)OP(=O)(O)O)O2)c(=O)[nH]c1=O", "note": "[AMT 5'triphosphate]", "values": [{"measurement": "inhibition of reverse transcriptase", "setting": "reverse transcriptase", "result": "inhibitor of HIV reverse transcriptase"}, {"measurement": "inhibition of DNA polymerase", "setting": "DNA polymerase", "result": "inhibitor of DNA polymerase"}]}
{"smiles": "Cc1cn([C@H]2C[C@H](N)[C@@H](CO)O2)c(=O)[nH]c1=O", "note": "[AMT, 3'-amino-3'-deoxythymidine]", "values": [{"measurement": "toxicity to bone marrow cells relative to AZT", "setting": "bone marrow cells", "result": "5-7 times more toxic"}, {"measurement": "AMT level relative to AZT by AUC", "setting": "[1]", "result": "about twenty"}, {"measurement": "binding of the reverse transcriptase enzyme", "setting": "reverse transcriptase", "result": "competitive binding"}, {"measurement": "antiviral activity", "setting": "HIV [2]", "result": "no antiviral activity; also recorded: poor antiviral activity"}, {"measurement": "effect on the anti-HIV action of AZT", "setting": "HIV [2]", "result": "antagonistic effect"}, {"measurement": "anti-cancer effects", "setting": "[3]", "result": "potent anti-cancer effects"}]}
{"smiles": "Cc1cn([C@H]2C[C@H](N=[N+]=[N-])[C@@H](CO)O2)c(=O)[nH]c1=O", "note": "[AZT, 3'-azido-3'-deoxythymidine]", "values": [{"measurement": "inhibition of reverse transcriptase", "setting": "reverse transcriptase", "result": "inhibitor of reverse transcriptase"}, {"measurement": "relationship between phosphorylated AZT and dosage or blood levels", "setting": "[4]", "result": "showed no relationship"}, {"measurement": "AMT levels by oral route", "setting": "[5]", "result": "higher levels of AMT"}, {"measurement": "absorption from the gastrointestinal tract", "setting": "[6]", "result": "rapidly absorbed"}, {"measurement": "effectiveness in asymptomatic sero-positive patients", "setting": "HIV [7]; 1500 mg per day", "result": "not as effective as 500 mg per day"}, {"measurement": "toxicity of dose", "setting": "HIV [7]; human, in vivo", "result": "too toxic"}]}
{"smiles": "Cc1cn([C@H]2C[C@H](N=[N+]=[N-])[C@@H](COP(=O)(O)OP(=O)(O)OP(=O)(O)O)O2)c(=O)[nH]c1=O", "note": "[triphosphate form]", "values": [{"measurement": "inhibitory effect on viral transcription", "setting": "HIV [2]", "result": "most inhibitory effect"}]}
